Test results taken from ChEMBL document CHEMBL1156904, “Part II: piperazinyl-glutamate-pyridines as potent orally bioavailable P2Y12 antagonists for inhibition of platelet aggregation” (Bioorg Med Chem Lett, 2010).
pIC50, pKi: −log10 of the molar value.

Experiments:
[1] = Antiplatelet activity in human platelet rich plasma assessed as inhibition of ADP-induced platelet aggregation; format: functional
P2Y purinoceptor 12 = P2Y purinoceptor 12 (Homo sapiens, UniProt Q9H244); assay: Inhibition of human P2Y12 receptor expressed in CHO cells
Sequence of P2Y purinoceptor 12 (Q9H244 whole entry): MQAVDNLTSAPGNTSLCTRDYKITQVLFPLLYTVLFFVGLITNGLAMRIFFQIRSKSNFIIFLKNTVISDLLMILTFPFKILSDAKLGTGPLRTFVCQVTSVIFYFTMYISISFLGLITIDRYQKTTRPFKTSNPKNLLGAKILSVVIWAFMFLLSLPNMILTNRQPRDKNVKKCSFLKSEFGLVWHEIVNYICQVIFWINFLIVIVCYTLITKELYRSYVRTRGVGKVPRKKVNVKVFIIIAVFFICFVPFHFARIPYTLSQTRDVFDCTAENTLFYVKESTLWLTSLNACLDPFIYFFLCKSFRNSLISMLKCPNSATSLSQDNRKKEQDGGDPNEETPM

[2] = Antiplatelet activity in human platelet rich plasma assessed as inhibition of ADP-induced platelet aggregation relative to AZD-6140; format: functional
[3] = Metabolic stability in human microsomes; format: ADME, Microsome
[4] = Metabolic stability in rat microsomes; format: ADME, Microsome

CCCCCOC(=O)N1CCN(C(=O)[C@H](CCC(=O)O)NC(=O)c2cc(N3CC(O)C3)cc(-c3ccccc3)n2)CC1
pIC50 [1]: 5.07
pKi (P2Y purinoceptor 12): 8.60
fold change (FC) [2]: 9.2
Stability [3]: Stable
Stability [4]: Stable

CCCCCOC(=O)N1CCN(C(=O)[C@H](CCC(=O)O)NC(=O)c2cc(N3CCN(CC(=O)N(CC)CC)CC3)cc(-c3ccccc3)n2)CC1
pIC50 [1]: 5.54
pKi (P2Y purinoceptor 12): 8.23
fold change (FC) [2]: 3.2
Stability [3]: Stable
Stability [4]: Stable

CCCCCOC(=O)N1CCN(C(=O)C(CCC(=O)O)NC(=O)c2cc(N3CCC(O)C3)cc(-c3ccccc3)n2)CC1 (mixture of isomers)
pIC50 [1]: 5.15
pKi (P2Y purinoceptor 12): 7.89
fold change (FC) [2]: 3.9
Stability [3]: Stable
Stability [4]: Stable

CCCCCOC(=O)N1CCN(C(=O)[C@H](CCC(=O)O)NC(=O)c2cc(N3CCCC(N4CCCC4)C3)cc(-c3ccccc3)n2)CC1 (stereo not given in full)
pIC50 [1]: 5.48
pKi (P2Y purinoceptor 12): 7.96
fold change (FC) [2]: 3.3
Stability [3]: Stable
Stability [4]: Stable

CCCCOC(=O)N1CCN(C(=O)[C@H](CCC(=O)O)NC(=O)c2cc(N3CCC(C(=O)NCC)CC3)cc(-c3ccccc3)n2)CC1
pIC50 [1]: 5.92
pKi (P2Y purinoceptor 12): 9.17
fold change (FC) [2]: 0.9
Stability [3]: Stable
Stability [4]: Stable

CCCCCOC(=O)N1CCN(C(=O)[C@H](CCC(=O)O)NC(=O)c2cc(N3CCCC(N)C3)cc(-c3ccccc3)n2)CC1 (stereo not given in full)
pIC50 [1]: 5.74
pKi (P2Y purinoceptor 12): 8.26
fold change (FC) [2]: 2.2
Stability [3]: Stable
Stability [4]: Stable

CCCCOC(=O)N1CCN(C(=O)[C@H](CCC(=O)O)NC(=O)c2cc(N3CCC(CNC)CC3)cc(-c3ccccc3)n2)CC1
pIC50 [1]: 6.04
pKi (P2Y purinoceptor 12): 8.40
fold change (FC) [2]: 1
Stability [3]: Stable
Stability [4]: Stable

CCCCOC(=O)N1CCN(C(=O)[C@H](CCC(=O)O)NC(=O)c2cc(N3CCC(CN4CCCC4=O)CC3)cc(-c3ccccc3)n2)CC1
pIC50 [1]: 5.96
pKi (P2Y purinoceptor 12): 9.10
fold change (FC) [2]: 1.5
Stability [3]: Stable
Stability [4]: Stable

CCCCCOC(=O)N1CCN(C(=O)[C@H](CCC(=O)O)NC(=O)c2cc(N3CCN(C(=O)CN(C)C)CC3)cc(-c3ccccc3)n2)CC1
pIC50 [1]: 6.15
pKi (P2Y purinoceptor 12): 8.55
fold change (FC) [2]: 2.5
Stability [3]: Stable
Stability [4]: Stable

CCCCCOC(=O)N1CCN(C(=O)[C@H](CCC(=O)O)NC(=O)c2cc(N3CCCC(CN4CCCC4=O)C3)cc(-c3ccccc3)n2)CC1 (stereo not given in full)
pIC50 [1]: 5.59
pKi (P2Y purinoceptor 12): 8.00
fold change (FC) [2]: 3.8
Stability [3]: Stable
Stability [4]: Stable

CCCCCOC(=O)N1CCN(C(=O)[C@H](CCC(=O)O)NC(=O)c2cc(N3CC[C@H](C(=O)N(C)C)C3)cc(-c3ccccc3)n2)CC1
pIC50 [1]: 5.52
pKi (P2Y purinoceptor 12): 7.59
fold change (FC) [2]: 4.1
Stability [3]: Stable
Stability [4]: Stable

CCCCCOC(=O)N1CCN(C(=O)[C@H](CCC(=O)O)NC(=O)c2cc(N3CCN(CCCN(C)C)CC3)cc(-c3ccccc3)n2)CC1
pIC50 [1]: 6.28
pKi (P2Y purinoceptor 12): 8.08
fold change (FC) [2]: 0.72
Stability [3]: Stable
Stability [4]: Stable

CCCCCOC(=O)N1CCN(C(=O)[C@H](CCC(=O)O)NC(=O)c2cc(N3CC[C@H](C(=O)N4CCCC4)C3)cc(-c3ccccc3)n2)CC1
pIC50 [1]: 5.59
pKi (P2Y purinoceptor 12): 8.77
fold change (FC) [2]: 2.8
Stability [3]: Stable
Stability [4]: Stable

CCCCCOC(=O)N1CCN(C(=O)[C@H](CCC(=O)O)NC(=O)c2cc(N3CCN(C(N)=O)CC3)cc(-c3ccccc3)n2)CC1
pIC50 [1]: 5.72
pKi (P2Y purinoceptor 12): 8.20
fold change (FC) [2]: 1.8
Stability [3]: Stable
Stability [4]: Stable

CCCCCOC(=O)N1CCN(C(=O)[C@H](CCC(=O)O)NC(=O)c2cc(N3CCN(CCOCCC)CC3)cc(-c3ccccc3)n2)CC1
pIC50 [1]: 5.82
pKi (P2Y purinoceptor 12): 8.20
fold change (FC) [2]: 3.1
Stability [3]: Stable
Stability [4]: Stable

CCCCCOC(=O)N1CCN(C(=O)[C@H](CCC(=O)O)NC(=O)c2cc(N3CCC(CN(CC)CC)CC3)cc(-c3ccccc3)n2)CC1
pIC50 [1]: 5.66
pKi (P2Y purinoceptor 12): 8.40
fold change (FC) [2]: 2.7
Stability [3]: Stable
Stability [4]: Stable

CCCCCOC(=O)N1CCN(C(=O)[C@H](CCC(=O)O)NC(=O)c2cc(N3CCC[C@@H](O)C3)cc(-c3ccccc3)n2)CC1
pIC50 [1]: 5.36
pKi (P2Y purinoceptor 12): 7.80
fold change (FC) [2]: 4.9
Stability [3]: Stable
Stability [4]: Stable

CCCCCOC(=O)N1CCN(C(=O)[C@H](CCC(=O)O)NC(=O)c2cc(N3CCC(CCN)CC3)cc(-c3ccccc3)n2)CC1
pIC50 [1]: 6.07
pKi (P2Y purinoceptor 12): 8.55
fold change (FC) [2]: 0.66
Stability [3]: Stable
Stability [4]: Stable

CCCCCOC(=O)N1CCN(C(=O)[C@H](CCC(=O)O)NC(=O)c2cc(N3CCC(CNC)CC3)cc(-c3ccccc3)n2)CC1
pIC50 [1]: 6.15
pKi (P2Y purinoceptor 12): 8.82
fold change (FC) [2]: 0.99
Stability [3]: Stable
Stability [4]: Stable

CCCCCOC(=O)N1CCN(C(=O)[C@H](CCC(=O)O)NC(=O)c2cc(N3CCC(CCOC)CC3)cc(-c3ccccc3)n2)CC1
pIC50 [1]: 5.57
pKi (P2Y purinoceptor 12): 7.96
fold change (FC) [2]: 3.5
Stability [3]: Stable
Stability [4]: Stable

CCCCCOC(=O)N1CCN(C(=O)[C@H](CCC(=O)O)NC(=O)c2cc(N3CCC(CN(C)C)CC3)cc(-c3ccccc3)n2)CC1
pIC50 [1]: 6.00
pKi (P2Y purinoceptor 12): 8.72
fold change (FC) [2]: 1.3
Stability [3]: Stable
Stability [4]: Stable

CCCCCOC(=O)N1CCN(C(=O)[C@H](CCC(=O)O)NC(=O)c2cc(N3CCCC(OC)C3)cc(-c3ccccc3)n2)CC1 (stereo not given in full)
pIC50 [1]: 5.28
pKi (P2Y purinoceptor 12): 7.51
fold change (FC) [2]: 6.3
Stability [3]: Stable
Stability [4]: Stable

CCCCCOC(=O)N1CCN(C(=O)[C@H](CCC(=O)O)NC(=O)c2cc(N3CCN(C(=O)N(CC)CC)CC3)cc(-c3ccccc3)n2)CC1
pIC50 [1]: 5.49
pKi (P2Y purinoceptor 12): 7.92
fold change (FC) [2]: 4.6
Stability [3]: Stable
Stability [4]: Stable

CCCCCOC(=O)N1CCN(C(=O)[C@H](CCC(=O)O)NC(=O)c2cc(N3CCC(CNC(C)=O)CC3)cc(-c3ccccc3)n2)CC1
pIC50 [1]: 5.17
pKi (P2Y purinoceptor 12): 7.60
fold change (FC) [2]: 3.9
Stability [3]: Stable
Stability [4]: Stable

CCCCCOC(=O)N1CCN(C(=O)C(CCC(=O)O)NC(=O)c2cc(N3CCC(CO)C3)cc(-c3ccccc3)n2)CC1 (mixture of isomers)
pIC50 [1]: 4.54
pKi (P2Y purinoceptor 12): 7.68
fold change (FC) [2]: 11
Stability [3]: Stable
Stability [4]: Stable

CCCCCOC(=O)N1CCN(C(=O)[C@H](CCC(=O)O)NC(=O)c2cc(N3CC[C@@H](C(=O)N4CCCC4)C3)cc(-c3ccccc3)n2)CC1
pIC50 [1]: 5.66
pKi (P2Y purinoceptor 12): 8.85
fold change (FC) [2]: 1.7
Stability [3]: Stable
Stability [4]: Stable

CCCCCOC(=O)N1CCN(C(=O)[C@H](CCC(=O)O)NC(=O)c2cc(N3CCN(CCN(C)C)CC3)cc(-c3ccccc3)n2)CC1
pIC50 [1]: 6.29
pKi (P2Y purinoceptor 12): 8.07
fold change (FC) [2]: 0.7
Stability [3]: Stable
Stability [4]: Stable

CCCCCOC(=O)N1CCN(C(=O)C(CCC(=O)O)NC(=O)c2cc(N3CCC(COC)C3)cc(-c3ccccc3)n2)CC1 (mixture of isomers)
pIC50 [1]: 5.14
pKi (P2Y purinoceptor 12): 7.51
fold change (FC) [2]: 10
Stability [3]: Stable
Stability [4]: Stable

CCCOC(=O)N1CCN(C(=O)[C@H](CCC(=O)O)NC(=O)c2cc(N3CCC(C(=O)N(CC)CC)CC3)cc(-c3ccccc3)n2)CC1
pIC50 [1]: 5.70
pKi (P2Y purinoceptor 12): 7.92
fold change (FC) [2]: 2.3
Stability [3]: Stable
Stability [4]: Stable

CCCCCOC(=O)N1CCN(C(=O)[C@H](CCC(=O)O)NC(=O)c2cc(N3CCN(C(=O)N(C)C)CC3)cc(-c3ccccc3)n2)CC1
pIC50 [1]: 5.52
pKi (P2Y purinoceptor 12): 8.23
fold change (FC) [2]: 3.6
Stability [3]: Stable
Stability [4]: Stable

CCCCCOC(=O)N1CCN(C(=O)[C@H](CCC(=O)O)NC(=O)c2cc(N3CCN(CCO)CC3)cc(-c3ccccc3)n2)CC1
pIC50 [1]: 5.74
pKi (P2Y purinoceptor 12): 7.89
fold change (FC) [2]: 1.1
Stability [3]: Stable
Stability [4]: Stable

CCCCCOC(=O)N1CCN(C(=O)[C@H](CCC(=O)O)NC(=O)c2cc(N3CCC(C(=O)N(C)C)CC3)cc(-c3ccccc3)n2)CC1
pIC50 [1]: 6.22
pKi (P2Y purinoceptor 12): 9.01
fold change (FC) [2]: 0.72
Stability [3]: Stable
Stability [4]: Stable

CCCCCOC(=O)N1CCN(C(=O)[C@H](CCC(=O)O)NC(=O)c2cc(N3CCN(CCS(C)(=O)=O)CC3)cc(-c3ccccc3)n2)CC1
pIC50 [1]: 6.17
pKi (P2Y purinoceptor 12): 8.05
fold change (FC) [2]: 0.81
Stability [3]: Stable
Stability [4]: Stable

CCCCCOC(=O)N1CCN(C(=O)[C@H](CCC(=O)O)NC(=O)c2cc(N3CCN(CC(N)=O)CC3)cc(-c3ccccc3)n2)CC1
pIC50 [1]: 6.29
pKi (P2Y purinoceptor 12): 8.77
fold change (FC) [2]: 1.8
Stability [3]: Stable
Stability [4]: Stable

CCCCCOC(=O)N1CCN(C(=O)[C@H](CCC(=O)O)NC(=O)c2cc(N3CCCC(C(N)=O)C3)cc(-c3ccccc3)n2)CC1 (stereo not given in full)
pIC50 [1]: 5.11
pKi (P2Y purinoceptor 12): 7.77
fold change (FC) [2]: 7.3
Stability [3]: Stable
Stability [4]: Stable

CCCCCCOC(=O)N1CCN(C(=O)[C@H](CCC(=O)O)NC(=O)c2cc(N3CCC(C(=O)N(CC)CC)CC3)cc(-c3ccccc3)n2)CC1
pIC50 [1]: 6.09
pKi (P2Y purinoceptor 12): 8.32
fold change (FC) [2]: 1.7
Stability [3]: Stable
Stability [4]: Stable

CCCCCOC(=O)N1CCN(C(=O)[C@H](CCC(=O)O)NC(=O)c2cc(N3CCC(CNCC)CC3)cc(-c3ccccc3)n2)CC1
pIC50 [1]: 6.02
pKi (P2Y purinoceptor 12): 8.82
fold change (FC) [2]: 1.2
Stability [3]: Stable
Stability [4]: Stable
